Consider 3 compounds from patent publication US20140286904A1, “ANITMICROBIAL PEPTIDE PRODUCED BY INTESTINAL LACTOBACILLUS SALIVARIUS” (AGRICULTURE AND FOOD DEVELOPMENT AUTHORITY (TEAGASC), priority 2011, published 2014).

As usually defined, the MIC50 is an inhibitory concentration at the 50% level, which refers to growth in some studies and to a panel of isolates in others.

Converted amounts (≈) assume the structure as drawn. Positions of bridges follow the written chain, without caps; N, C: chain ends. Residues, ends and D or L forms follow the SMILES beside them. No end group written: not given here.

Assay [1] relates to L. monocytogenes NCTC 11994. Particulars: BHI broth, 37° C., 24 h, OD590.
The next assay relates to E. coli strains. As to conditions: broth-based MIC50 assay.
The subject of a further assay is S. aureus DPC5246. Particulars: BHI broth, 37° C., 24 h, OD590.
The next assay concerns L. salivarius UCC118. Description: inhibition of strains closely related to the producer. In kind it is cell-based, Lactobacillus salivarius.
For the next assay, the system named is Listeria. Briefly: antimicrobial activity of purified peptide (FIG. 1). Type of assay: cell-based. How it is done:
(§1) The antimicrobial peptide was purified from a 0.5 L overnight culture of L. salivarius DPC6502 grown in MRS-IM-G media. The cells were removed by centrifugation at 8,000×g for 15 min, and the supernatant applied to a column containing 10 ml SP sepharose Fast flow cation-exchange resin (GE Healthcare, UK) previously equilibrated with 50 mM sodium acetate buffer, pH 4.5. The column was washed with 50 mM sodium acetate buffer, pH 4.5 containing 0.3 M NaCl, the bioactive peptide was subsequently eluted from the column using 50 mM sodium acetate buffer, pH 4.5 containing 1.0 M NaCl. The eluate was applied to a 2.0 g (12 ml volume) C18 Bond Elute column (Phenomenex, Cheshire, UK) pre-equilibrated with methanol and water. […] The column was pre-equilibrated with 10% acetonitrile containing 0.1% (vol/vol) TFA, followed by separation and elution of the bioactive peptide by gradient RP-HPLC using 0.1% (vol/vol) TFA and acetonitrile concentrations that ranged from 10% to 30% (vol/vol), from 5 to 45 min at a flow rate of 1.0 ml min^−1 Absorbance was monitored at a wavelength of 214 nm. Antimicrobial peptide activity was monitored throughout the purification procedure by well diffusion assay using the sensitive indicator strain L. delbrueckii subsp. bulgaricus LMG6901. […]

The next assay relates to Staphylococcus aureus. Described as above. In kind it is cell-based.
In assay [2] the test system is L. delbrueckii subsp. bulgaricus. Briefly: antimicrobial activity of purified peptide (well diffusion, FIG. 1). In kind it is cell-based, Lactobacillus delbrueckii subsp. bulgaricus. How it is done: as §1
Background: Agar diffusion results depend on both activity and mobility in agar.

Assay [3] concerns bovine mastitis isolate S. aureus DPC5245. Particulars: cited from earlier work.

As for `CSCC[C@H](NC(=O)CNC(=O)[C@@H](NC(=O)[C@@H]1CCCN1C(=O)[C@H](CCSC)NC(=O)CNC(=O)[C@H](CC(N)=O)NC(=O)[C@H](CC(N)=O)NC(=O)[C@H](Cc1ccc(O)cc1)NC(=O)[C@@H](NC(=O)[C@H](CCCNC(=N)N)NC(=O)[C@H](CS)NC(=O)[C@H](CCCNC(=N)N)NC(=O)[C@H](Cc1c[nH]cn1)NC(=O)[C@H](CCCCN)NC(=O)[C@H](CCCCN)NC(=O)[C@H](CCCNC(=N)N)NC(=O)[C@@H](N)CCCCN)C(C)C)[C@@H](C)O)C(=O)N[C@@H](Cc1ccc(O)cc1)C(=O)N[C@@H](CCCNC(=N)N)C(=O)N[C@@H](Cc1c[nH]c2ccccc12)C(=O)N[C@@H](CS)C(=O)O` [synthetic Bactofensin LS1] (H-KRKKHRCRVYNNGMPTGMYRWC-OH; N-terminus assumed), the “MIC50 (concentration sufficient to inhibit growth by 50%)” value (in assay [1]; against S. aureus DPC5246) was 5 µM (≈ 13.9 µg/mL) in each case. Also, the “concentration that did not inhibit (MIC50 assay)” value with E. coli strains and in the assay with E. sakazakii strains was greater than 50 µM in each case.

For “Bactofensin LS1: 22 aa cationic class II antimicrobial peptide of SEQ ID NO: 2 purified from L. salivarius DPC6502 (KRKKHRCRVYNNGMPTGMYRWC; disulfide 7-22; listed as Lactobacillus salivarius)”, the “inhibition of closely related strains” value in the assay with L. salivarius UCC118 was “inhibits”. Moreover, the antimicrobial activity result (in the assay with Listeria; in the assay with Staphylococcus aureus; in [2]) was “active” throughout.

As to lacticin 3147, the MIC50 in assay [3] was 7 to 8 µM.
